Assay results taken from the supplement of paper PMC10307832.

What was measured:
Linsitinib + Palbociclib = compound: C[C@]1(O)C[C@@H](c2nc(-c3ccc4ccc(-c5ccccc5)nc4c3)c3c(N)nccn32)C1 [Linsitinib] + CC(=O)c1c(C)c2cnc(Nc3ccc(N4CCNCC4)cn3)nc2n(C2CCCC2)c1=O [Palbociclib] (partner 0.5 µM); assay: relative viability (nuclei count vs DMSO), 5 days (fraction); higher = more cells survive
How it was run: (§1)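 Lung cancer cell lines were pin-tool dosed in 1536-well plates on the day after seeding, with either a lone drug or a fixed anchor-drug dose plus five library-drug doses (not always all listed) in √10 steps. Nuclei were counted on 4× images after 5 days. Relative viability is the ratio of treated-well to vehicle-well nuclei counts, with each value a median of duplicate plates.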

Linsitinib + Decitabine = compound: C[C@]1(O)C[C@@H](c2nc(-c3ccc4ccc(-c5ccccc5)nc4c3)c3c(N)nccn32)C1 [Linsitinib] + Nc1ncn([C@H]2C[C@H](O)[C@@H](CO)O2)c(=O)n1 [Decitabine] (partner 2 µM); assay: as above
How it was run: as §1

Cell Line | relative viability (Linsitinib + Palbociclib; first compound 0.01 µM) | relative viability (Linsitinib + Palbociclib; first compound 0.03162 µM) | relative viability (Linsitinib + Palbociclib; first compound 0.1 µM) | relative viability (Linsitinib + Palbociclib; first compound 1 µM) | relative viability (Linsitinib + Decitabine; first compound 0.01 µM) | relative viability (Linsitinib + Decitabine; first compound 0.03162 µM) | relative viability (Linsitinib + Decitabine; first compound 0.1 µM) | relative viability (Linsitinib + Decitabine; first compound 1 µM) | relative viability (Linsitinib + Palbociclib; first compound 0.3162 µM) | relative viability (Linsitinib + Decitabine; first compound 0.3162 µM)
NCI-H650 | 0.348 | 0.364 | 0.339 | 0.291 | 0.313 | 0.396 | 0.287 | 0.306 | – | –
A-427 | 0.516 | 0.568 | 0.535 | 0.494 | 0.597 | 0.595 | 0.577 | 0.523 | – | –
NCI-H2347 | 0.372 | 0.498 | 0.468 | 0.399 | 0.644 | 0.668 | 0.629 | 0.614 | 0.34 | 0.591
NCI-H1793 | 0.288 | 0.342 | 0.283 | 0.26 | 0.428 | 0.634 | 0.547 | 0.454 | 0.26 | 0.422
NCI-H1651 | 0.543 | 0.525 | 0.494 | 0.489 | 0.316 | 0.744 | 0.518 | 0.597 | 0.486 | 0.516
HCC-78 | 0.45 | 0.539 | 0.458 | 0.501 | – | 0.818 | 0.649 | 0.682 | 0.525 | 0.588
NCI-H23 | 0.519 | 0.415 | 0.415 | 0.313 | 0.305 | 0.314 | 0.322 | 0.298 | 0.326 | 0.264
LOU-NH91 | 0.513 | 0.539 | 0.484 | 0.549 | 0.813 | 0.806 | 0.803 | 0.782 | 0.529 | 0.715
LXF-289 | 0.565 | 0.62 | 0.607 | 0.614 | 0.366 | 0.481 | 0.382 | 0.39 | 0.493 | 0.333
NCI-H460 | 0.192 | 0.0289 | 0.184 | 0.142 | 0.497 | 0.483 | 0.511 | 0.424 | – | –
NCI-H1792 | – | 0.712 | 0.527 | 0.375 | 0.496 | 0.484 | 0.512 | 0.363 | 0.599 | 0.472
EMC-BAC-2 | 0.512 | 0.509 | 0.493 | 0.425 | 0.98 | 1.11 | 0.881 | 0.727 | 0.478 | 0.733
CAL-12T | 0.429 | 0.388 | 0.412 | 0.424 | – | – | – | – | 0.321 | –
ChaGo-K-1 | 0.926 | 0.897 | 0.974 | 0.978 | 0.504 | 0.519 | 0.49 | 0.51 | – | –
COR-L 105 | 0.38 | 0.403 | 0.437 | 0.358 | 0.636 | 0.569 | 0.597 | 0.659 | 0.373 | 0.554
NCI-H1944 | 0.398 | 0.418 | 0.286 | 0.296 | 0.426 | 0.53 | 0.422 | 0.341 | 0.303 | 0.398
NCI-H2009 | 0.119 | 0.203 | 0.19 | 0.24 | 0.36 | 0.4 | 0.366 | 0.396 | 0.105 | 0.359
NCI-H522 | 1.01 | 0.83 | 1.04 | 0.977 | 0.657 | 0.773 | 0.614 | 0.587 | 0.673 | 0.688
NCI-H441 | 0.197 | 0.226 | 0.199 | 0.119 | 0.246 | 0.26 | 0.223 | 0.257 | 0.138 | 0.212

Cell Line | relative viability (Linsitinib + Palbociclib; first compound 0.01 µM) | relative viability (Linsitinib + Palbociclib; first compound 0.03162 µM) | relative viability (Linsitinib + Palbociclib; first compound 0.1 µM) | relative viability (Linsitinib + Palbociclib; first compound 1 µM) | relative viability (Linsitinib + Decitabine; first compound 0.01 µM) | relative viability (Linsitinib + Decitabine; first compound 0.03162 µM) | relative viability (Linsitinib + Decitabine; first compound 0.1 µM) | relative viability (Linsitinib + Decitabine; first compound 1 µM) | relative viability (Linsitinib + Palbociclib; first compound 0.3162 µM) | relative viability (Linsitinib + Decitabine; first compound 0.3162 µM)
NCI-H1437 | 0.291 | 0.33 | 0.321 | 0.346 | 0.541 | 0.551 | 0.555 | 0.599 | 0.276 | 0.4
PC-14 | 0.513 | 0.46 | 0.521 | 0.507 | 0.2 | 0.196 | 0.22 | 0.172 | 0.429 | 0.158
LCLC-103H | 0.435 | 0.414 | 0.427 | 0.486 | 0.757 | 0.713 | 0.658 | 0.739 | 0.367 | 0.628
COR-L23 | 0.278 | 0.3 | 0.249 | 0.226 | 0.399 | 0.539 | 0.418 | 0.441 | 0.198 | 0.351
H3255 | 0.309 | 0.341 | 0.313 | 0.299 | – | 0.627 | 0.559 | 0.686 | 0.321 | 0.518
NCI-H2126 | 0.345 | 0.365 | 0.347 | 0.334 | 0.6 | 0.675 | 0.574 | 0.577 | 0.352 | 0.544
HCC-366 | 0.441 | 0.394 | 0.359 | 0.328 | 0.35 | 0.354 | 0.349 | 0.326 | 0.303 | 0.293
LU99A | 0.392 | 0.432 | 0.434 | 0.36 | 0.924 | 0.881 | 0.81 | 0.917 | – | –
HOP-62 | 0.435 | 0.424 | 0.49 | 0.45 | 0.194 | 0.241 | 0.194 | 0.201 | – | –
HCC-15 | 0.75 | 0.703 | 0.702 | 0.569 | 0.63 | 0.509 | 0.61 | 0.368 | 0.283 | 0.28
HARA | 0.276 | 0.274 | 0.223 | 0.268 | 0.518 | 0.533 | 0.526 | 0.678 | 0.203 | –
SK-MES-1 | 0.325 | 0.297 | 0.323 | 0.324 | 0.39 | 0.369 | 0.387 | 0.423 | 0.296 | 0.418
NCI-H1355 | 0.384 | 0.345 | 0.309 | 0.269 | 0.378 | 0.353 | 0.334 | 0.317 | 0.308 | 0.309
NCI-H727 | 0.708 | 0.719 | 0.63 | 0.554 | 0.671 | 1.05 | 0.752 | 0.63 | 0.553 | 0.58
NCI-H520 | 0.175 | 0.212 | 0.244 | 0.215 | 0.456 | 0.59 | 0.501 | 0.555 | – | –
NCI-H838 | 0.23 | 0.207 | 0.17 | 0.162 | 0.462 | 0.581 | 0.452 | 0.405 | 0.19 | 0.284
HCC-44 | 0.962 | 0.928 | 0.879 | 0.825 | 0.922 | 0.977 | 0.919 | 0.746 | 0.785 | 0.552
LK-2 | 0.968 | 0.58 | 0.615 | 0.554 | 0.221 | 0.407 | 0.232 | 0.185 | 0.371 | 0.187
HCC-827 | 0.408 | 0.572 | 0.468 | 0.529 | 0.165 | 0.427 | 0.287 | 0.34 | – | –

Cell Line | relative viability (Linsitinib + Palbociclib; first compound 0.01 µM) | relative viability (Linsitinib + Palbociclib; first compound 0.03162 µM) | relative viability (Linsitinib + Palbociclib; first compound 0.1 µM) | relative viability (Linsitinib + Palbociclib; first compound 1 µM) | relative viability (Linsitinib + Decitabine; first compound 0.01 µM) | relative viability (Linsitinib + Decitabine; first compound 0.03162 µM) | relative viability (Linsitinib + Decitabine; first compound 0.1 µM) | relative viability (Linsitinib + Decitabine; first compound 1 µM) | relative viability (Linsitinib + Palbociclib; first compound 0.3162 µM) | relative viability (Linsitinib + Decitabine; first compound 0.3162 µM)
SW 1573 | 0.428 | 0.358 | 0.333 | 0.33 | 0.648 | 0.589 | 0.447 | 0.348 | 0.259 | 0.472
NCI-H2023 | 0.4 | 0.245 | 0.37 | 0.26 | 0.213 | – | 0.239 | 0.243 | 0.256 | 0.196
EPLC-272H | 0.337 | 0.351 | 0.327 | 0.335 | 0.316 | 0.375 | 0.389 | 0.344 | – | –
SK-LU-1 | 0.436 | 0.303 | 0.394 | 0.384 | 0.605 | 0.635 | 0.637 | 0.602 | 0.391 | 0.624
NCI-H358 | 0.144 | 0.14 | 0.121 | 0.107 | 0.242 | 0.354 | 0.256 | 0.222 | 0.113 | 0.208
ABC-1 | 0.793 | 0.537 | 0.627 | 0.425 | 1.02 | 1.17 | 1.22 | 0.842 | 0.428 | 0.995
NCI-H1395 | 0.653 | – | 0.713 | 0.654 | 0.691 | – | 0.777 | 0.702 | 0.641 | 0.695
NCI-H2085 | 0.434 | 0.465 | 0.493 | 0.478 | 0.525 | 0.59 | 0.509 | 0.618 | 0.445 | 0.528
NCI-H2087 | 0.205 | 0.268 | 0.15 | 0.299 | 0.275 | 0.387 | 0.257 | 0.267 | 0.175 | 0.259
NCI-H322M | 0.475 | 0.521 | 0.492 | 0.463 | 0.68 | 0.818 | 0.719 | 0.674 | 0.478 | 0.757
NCI-H1734 | 0.338 | 0.394 | 0.334 | 0.31 | 0.512 | 0.502 | 0.463 | 0.487 | 0.313 | 0.516
NCI-H2228 | 0.809 | 0.62 | 0.619 | 0.513 | – | – | – | – | 0.546 | –
EKVX | – | 0.408 | 0.39 | 0.316 | – | 0.37 | 0.329 | 0.324 | 0.288 | 0.348
NCI-H596 | – | – | – | – | 1.03 | 1.06 | 1.11 | 1.01 | – | 0.976
NCI-H1975 | 0.571 | 0.588 | 0.517 | 0.39 | 0.375 | 0.452 | 0.376 | 0.363 | 0.429 | 0.34
NCI-H2170 | 0.386 | 0.4 | 0.381 | 0.412 | 0.445 | 0.528 | 0.461 | 0.468 | – | –
NCI-H1666 | 0.626 | 0.565 | 0.656 | 0.604 | 0.622 | 0.79 | 0.732 | 0.602 | 0.526 | 0.521
A549 | – | – | – | – | 0.246 | 0.234 | 0.309 | 0.241 | – | 0.12
